According to US20230033285A1, “Protease Inhibitors for Treatment of Coronavirus Infections” (The Scripps Research Institute, priority 2021, published 2023):

Tested on: SARS-CoV-2
Experiment: microbe, parasite or virus in culture
Type: cell-based
Settings: Severe acute respiratory syndrome coronavirus 2, HeLa-ACE2, 24 h, read-out: EC50, μM (Hela)

| SMILES | EC50 |
| --- | --- |
| CC(C)(C)[C@H](NC(=O)C(F)(F)F)C(=O)N1C[C@H]2[C@@H]([C@H]1C(=O)N[C@H](C#N)C[C@@H]1CCCNC1=O)C2(C)C [Compound 63, (1R,2S,5S)-N-((S)-1-cyano-2-((S)-2-oxopiperidin-3-yl)ethyl)-3-((S)-3,3-dimethyl-2-(2,2,2-trifluoroacetamido)butanoyl)-6,6-dimethyl-3-azabicyclo[3.1.0]hexane-2-carboxamide] | < 0.05 µM |
| CC1(C)[C@@H]2[C@@H](C(=O)N[C@H](C#N)C[C@@H]3CCCNC3=O)N(C(=O)[C@@H](NC(=O)C(F)(F)F)C3CCOCC3)C[C@@H]21 [Compound 68, (1R,2S,5S)-N-((S)-1-cyano-2-((S)-2-oxopiperidin-3-yl)ethyl)-6,6-dimethyl-3-((S)-2-(tetrahydro-2H-pyran-4-yl)-2-(2,2,2-trifluoroacetamido)acetyl)-3-azabicyclo[3.1.0]hexane-2-carboxamide] | > 1 µM |

Same assay, conditions: Severe acute respiratory syndrome coronavirus 2; HeLa-ACE2 cells infected with SARS-CoV-2, 24 h, immunofluorescence of infected cells; read-out: EC50, μM (Hela)

| SMILES | EC50 |
| --- | --- |
| N#C[C@H](C[C@@H]1CCCNC1=O)NC(=O)[C@@H]1[C@H]2CCC[C@H]2CN1C(=O)C(=O)Nc1ccccc1F [Compound 60, (1S,3aR,6aS)-N-((S)-1-cyano-2-((S)-2-oxopiperidin-3-yl)ethyl)-2-(2-((2-fluorophenyl)amino)-2-oxoacetyl)octahydrocyclopenta[c] pyrrole-1-carboxamide] | 0.5 to 1 µM |
| N#C[C@H](C[C@@H]1CCCNC1=O)NC(=O)[C@@H]1[C@H]2CCC[C@H]2CN1C(=O)COc1ccc(Cl)cc1Cl [Compound 61, (1S,3aR,6aS)-N-((S)-1-cyano-2-((S)-2-oxopiperidin-3-yl)ethyl)-2-(2-(2,4-dichlorophenoxy)acetyl)octahydrocyclo-penta[c]pyrrole-1-carboxamide] | 0.5 to 1 µM |
| N#C[C@H](C[C@@H]1CCNC1=O)NC(=O)[C@@H]1[C@H]2CCC[C@H]2CN1C(=O)C(=O)Nc1ccccc1F [Compound 62, (1S,3aR,6aS)-N-((S)-1-cyano-2-((S)-2-oxopyrrolidin-3-yl)ethyl)-2-(2-((2-fluorophenyl)amino)-2-oxoacetyl)octahydrocyclopenta[c] pyrrole-1-carboxamide] | > 1 µM |
| N#C[C@H](C[C@@H]1CCNC1=O)NC(=O)[C@@H]1CC2(CC2)CN1C(=O)C(=O)Nc1ccccc1F [Compound 64, (S)-N-((S)-1-cyano-2-((S)-2-oxopyrrolidin-3-yl)ethyl)-5-(2-((2-fluorophenyl)amino)-2-oxoacetyl)-5-azaspiro[2.4]heptane-6-carboxamide] | > 1 µM |
| CC1(C)[C@@H]2[C@@H](C(=O)N[C@H](C#N)C[C@@H]3CCNC3=O)N(C(=O)C(=O)NC3(C(F)(F)F)CC3)C[C@@H]21 [Compound 65, (1R,2S,5S)-N-((S)-1-cyano-2-((S)-2-oxopyrrolidin-3-yl)ethyl)-6,6-dimethyl-3-(2-oxo-2-((1-(trifluoromethyl)cyclopropyl)amino)acetyl)-3-azabicyclo[3.1.0]hexane-2-carboxamide] | > 1 µM |
| CC(C)(C)C[C@H](NC(=O)C(=O)Nc1ccccc1F)C(=O)N[C@@H](C[C@@H]1CCCNC1=O)C(=O)CO [Compound 87, N^1-(2-fluorophenyl)-N^2-((S)-1-(((S)-4-hydroxy-3-oxo-1-((S)-2-oxopiperidin-3-yl)butan-2-yl)amino)-4,4-dimethyl-1-oxopentan-2-yl)oxalamide] | < 0.05 µM |
| Cc1ccccc1NC(=O)C(=O)N[C@@H](CC1CC1)C(=O)N[C@@H](C[C@@H]1CCCNC1=O)C(=O)CO [Compound 88, N^1-((S)-3-cyclopropyl-1-(((S)-4-hydroxy-3-oxo-1-((S)-2-oxopiperidin-3-yl)butan-2-yl)amino)-1-oxopropan-2-yl)-N^2-(o-tolyl)oxalamide] | < 0.05 µM |
| CC(C)(C)C[C@H](NC(=O)C(=O)NC(C)(C)C)C(=O)N[C@@H](C[C@@H]1CCCNC1=O)C(=O)CO [Compound 89, N^1-(tert-butyl)-N^2-((S)-1-(((S)-4-hydroxy-3-oxo-1-((S)-2-oxopiperidin-3-yl)butan-2-yl)amino)-4,4-dimethyl-1-oxopentan-2-yl)oxalamide] | 0.05 to 0.2 µM |
| O=C(Nc1ccccc1F)C(=O)N[C@@H](CC1CC1)C(=O)N[C@@H](C[C@@H]1CCCNC1=O)C(=O)CO [Compound 90, N^1-((S)-3-cyclopropyl-1-(((S)-4-hydroxy-3-oxo-1-((S)-2-oxopiperidin-3-yl)butan-2-yl)amino)-1-oxopropan-2-yl)-N^2-(2-fluorophenyl)oxalamide] | < 0.05 µM |
| Cc1ccccc1NC(=O)C(=O)N1C[C@@H]2CCC[C@@H]2[C@H]1C(=O)N[C@@H](C[C@@H]1CCCNC1=O)C(=O)CO [Compound 91, (1S,3aR,6aS)-N-((S)-4-hydroxy-3-oxo-1-((S)-2-oxopiperidin-3-yl)butan-2-yl)-2-(2-oxo-2-(o-tolylamino)acetyl)octahydrocyclopenta [c]pyrrole-1-carboxamide] | 0.05 to 0.2 µM |
| Cc1ccccc1NC(=O)C(=O)N1C[C@@H]2CCC[C@@H]2[C@H]1C(=O)N[C@H](C[C@@H]1CCCNC1=O)C(=O)CO [Compound 92, (1S,3aR,6aS)-N-((R)-4-hydroxy-3-oxo-1-((S)-2-oxopiperidin-3-yl)butan-2-yl)-2-(2-oxo-2-(o-tolylamino)acetyl)octahydrocyclopenta [c]pyrrole-1-carboxamide] | > 1 µM |
| O=C(Nc1ccccc1F)C(=O)N1CC2(CC2)C[C@H]1C(=O)N[C@@H](C[C@@H]1CCNC1=O)C(=O)CO [Compound 93, (S)-5-(2-((2-fluorophenyl)amino)-2-oxoacetyl)-N-((S)-4-hydroxy-3-oxo-1-((S)-2-oxopyrrolidin-3-yl)butan-2-yl)-5-azaspiro[2.4]heptane-6-carboxamide] | 0.2 to 0.5 µM |
| CC(C)(C)C[C@H](NC(=O)C(=O)NC12CC(F)(C1)C2)C(=O)N[C@@H](C[C@@H]1CCCNC1=O)C(=O)CO [Compound 94, N^1-(3-fluorobicyclo[1.1.1]pentan-1-yl)-N^2-((S)-1-(((S)-4-hydroxy-3-oxo-1-((S)-2-oxopiperidin-3-yl)butan-2-yl)amino)-4,4-dimethyl-1-oxopentan-2-yl)oxalamide] | 0.05 to 0.2 µM |
| CC(C)(C)C[C@H](NC(=O)C(=O)Nc1cccc(OC(F)(F)F)c1)C(=O)N[C@@H](CC1CCCNC1=O)C(=O)CO (stereo partly drawn) [Compound 95] | < 0.05 µM |
| CC(C)(C)C[C@H](NC(=O)C(=O)Nc1ccccc1C(F)(F)F)C(=O)N[C@@H](CC1CCCNC1=O)C(=O)CO (stereo partly drawn) [Compound 96] | < 0.05 µM |
| CC1(C[C@H](NC(=O)C(=O)NC23CC(F)(C2)C3)C(=O)N[C@@H](C[C@@H]2CCNC2=O)C(=O)CO)CCC1 [Compound 97, N^1-(3-fluorobicyclo[1.1.1]pentan-1-yl)-N^2-((S)-1-(((S)-4-hydroxy-3-oxo-1-((S)-2-oxopyrrolidin-3-yl)butan-2-yl)amino)-3-(1-methylcyclobutyl)-1-oxopropan-2-yl)oxalamide] | 0.05 to 0.2 µM |
| CC(C)(C)C[C@H](NC(=O)C(=O)Nc1ccccc1OC(F)(F)F)C(=O)N[C@@H](CC1CCCNC1=O)C(=O)CO (stereo partly drawn) [Compound 98] | < 0.05 µM |
| CC(C)(C)C[C@H](NC(=O)C(=O)Nc1cccc(C(F)(F)F)c1)C(=O)N[C@@H](CC1CCCNC1=O)C(=O)CO (stereo partly drawn) [Compound 99] | < 0.05 µM |
| CC(C)(C)C[C@H](NC(=O)C(=O)Nc1ccccc1C(C)(C)C)C(=O)N[C@@H](C[C@@H]1CCCNC1=O)C(=O)CO [Compound 100, N^1-(2-(tert-butyl)phenyl)-N^2-((S)-1-(((S)-4-hydroxy-3-oxo-1-((S)-2-oxopiperidin-3-yl)butan-2-yl)amino)-4,4-dimethyl-1-oxopentan-2-yl)oxalamide] | < 0.05 µM |
